Assay results: patent US7943619B2, “Isoxazolo-pyridazine derivatives” (priority 2007, dated 2011)
Where a name gives a salt, the structure may show the parent alone.

target: human GABA A receptor α5β3γ2 (α5 subunit) (Homo sapiens, UniProt P18507+P31644); assay: biochemical; format: binding; conditions: competition for [3H]flumazenil binding, HEK293 cells transiently expressing human receptors; means of two determinations; read-out: hKi
Method: The affinity of compounds at GABA A receptor subtypes was measured by competition for [3H]flumazenil (85 Ci/mmol; Roche) binding to HEK293 cells expressing rat (stably transfected) or human (transiently transfected) receptors of composition α1β3γ2, α2β3γ2, α3β3γ2 and α5β3γ2.
Cell pellets were suspended in Krebs-tris buffer (4.8 mM KCl, 1.2 mM CaCl2, 1.2 mM MgCl2, 120 mM NaCl, 15 mM Tris; pH 7.5; binding assay buffer), homogenized by polytron for ca. 20 sec on ice and centrifuged for 60 min at 4° C. (50000 g; Sorvall, rotor: SM24=20000 rpm). The cell pellets were resuspended in Krebs-tris buffer and homogenized by polytron for ca. 15 sec on ice. Protein was measured (Bradford method, Bio-Rad) and aliquots of 1 mL were prepared and stored at −80° C.
Assays were incubated to equilibrium for 1 hour at 4° C. and harvested onto GF/C uni-filters (Packard) by filtration using a Packard harvester and washing with ice-cold wash buffer (50 mM Tris; pH 7.5). After drying, filter-retained radioactivity was detected by liquid scintillation counting. Ki values were calculated using Excel-Fit (Microsoft) and are the means of two determinations.

Chain of human GABA A receptor α5β3γ2 (α5 subunit) (P31644 32-462): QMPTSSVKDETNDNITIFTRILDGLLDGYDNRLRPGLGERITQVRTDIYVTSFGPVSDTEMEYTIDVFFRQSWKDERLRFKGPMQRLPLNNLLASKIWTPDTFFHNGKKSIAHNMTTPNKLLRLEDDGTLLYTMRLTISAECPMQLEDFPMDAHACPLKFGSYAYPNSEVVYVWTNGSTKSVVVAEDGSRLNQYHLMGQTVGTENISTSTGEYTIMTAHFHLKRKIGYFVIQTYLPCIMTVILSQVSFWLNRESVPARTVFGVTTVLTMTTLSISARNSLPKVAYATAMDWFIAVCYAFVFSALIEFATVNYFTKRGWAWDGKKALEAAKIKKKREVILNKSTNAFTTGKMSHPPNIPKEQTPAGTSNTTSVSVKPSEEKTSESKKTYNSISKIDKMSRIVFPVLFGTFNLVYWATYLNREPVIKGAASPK
Chain of human GABA A receptor α5β3γ2 (α5 subunit) (P28472 26-473 partner): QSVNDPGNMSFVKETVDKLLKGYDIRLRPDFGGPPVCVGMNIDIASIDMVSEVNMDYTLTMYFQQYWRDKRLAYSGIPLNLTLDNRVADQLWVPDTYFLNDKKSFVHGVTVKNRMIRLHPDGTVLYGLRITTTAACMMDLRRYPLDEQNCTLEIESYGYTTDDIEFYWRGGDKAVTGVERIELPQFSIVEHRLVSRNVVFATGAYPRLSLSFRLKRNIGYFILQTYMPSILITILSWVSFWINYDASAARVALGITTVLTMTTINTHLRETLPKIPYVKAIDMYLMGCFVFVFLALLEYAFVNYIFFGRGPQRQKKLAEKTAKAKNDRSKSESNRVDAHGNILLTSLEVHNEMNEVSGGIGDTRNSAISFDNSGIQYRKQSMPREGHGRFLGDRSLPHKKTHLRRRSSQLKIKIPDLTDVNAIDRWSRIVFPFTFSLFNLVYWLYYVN
Chain of human GABA A receptor α5β3γ2 (α5 subunit) (P18507 40-475): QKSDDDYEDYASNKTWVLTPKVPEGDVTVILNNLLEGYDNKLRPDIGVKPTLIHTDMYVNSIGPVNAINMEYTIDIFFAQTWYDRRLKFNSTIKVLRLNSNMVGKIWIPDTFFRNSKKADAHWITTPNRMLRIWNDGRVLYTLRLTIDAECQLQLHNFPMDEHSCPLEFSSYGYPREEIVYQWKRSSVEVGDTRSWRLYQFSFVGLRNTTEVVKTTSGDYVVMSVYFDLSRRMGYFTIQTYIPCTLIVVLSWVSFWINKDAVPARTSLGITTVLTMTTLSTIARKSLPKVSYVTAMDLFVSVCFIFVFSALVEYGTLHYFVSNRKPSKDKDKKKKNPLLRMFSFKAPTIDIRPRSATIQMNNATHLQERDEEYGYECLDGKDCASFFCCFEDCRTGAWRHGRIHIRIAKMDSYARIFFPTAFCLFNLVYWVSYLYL

| Ki [nM] | SMILES |
| --- | --- |
| 14.2 | CCNC(=O)c1ccc(OCc2c(-c3ccncc3)noc2C)nn1 [Example 109, 6-(5-Methyl-3-pyridin-4-yl-isoxazol-4-ylmethoxy)-pyridazine-3-carboxylic acid ethylamide] |
| 6.9 | Cc1onc(-c2ccccc2)c1COc1ccc(NC(=O)c2ccco2)nn1 [Example 32, Furan-2-carboxylic acid [6-(5-methyl-3-phenyl-isoxazol-4-ylmethoxy)-pyridazin-3-yl]-amide] |
| 1.4 | Cc1cc(OCc2c(-c3ccccc3)noc2C)nnc1C(=O)NC1CC1 [Example 45, 4-Methyl-6-(5-methyl-3-phenyl-isoxazol-4-ylmethoxy)-pyridazine-3-carboxylic acid cyclopropylamide] |
| 9.6 | CCOC(=O)c1ccc(OCc2c(-c3cccc(F)c3)noc2C)nn1 [Example 49, 6-[3-(3-Fluoro-phenyl)-5-methyl-isoxazol-4-ylmethoxy]-pyridazine-3-carboxylic acid ethyl ester] |
| 2.9 | CCOC(=O)c1ccc(OCc2c(-c3ccccn3)noc2C)nn1 [Example 93, 6-(5-Methyl-3-pyridin-2-yl-isoxazol-4-ylmethoxy)-pyridazine-3-carboxylic acid ethyl ester] |
| 4 | Cc1onc(-c2ccccc2)c1COc1ccc(N2CCCC2=O)nn1 [Example 27, 1-[6-(5-Methyl-3-phenyl-isoxazol-4-ylmethoxy)-pyridazin-3-yl]-pyrrolidin-2-one] |
| 2.4 | Cc1onc(-c2ccc(F)cc2)c1COc1ccc(C(=O)NC2CCOCC2)nn1 [Example 63, 6-[3-(4-Fluoro-phenyl)-5-methyl-isoxazol-4-ylmethoxy]-pyridazine-3-carboxylic acid (tetrahydro-pyran-4-yl)-amide] |
| 6.7 | Cc1onc(-c2cccc(F)c2)c1COc1ccc(C(=O)NC2CC2)nn1 [Example 55, 6-[3-(3-Fluoro-phenyl)-5-methyl-isoxazol-4-ylmethoxy]-pyridazine-3-carboxylic acid cyclopropylamide] |
| 27.6 | CC(C)NC(=O)c1ccc(OCc2conc2-c2ccc(F)cc2)nn1 [Example 121, 6-[3-(4-Fluoro-phenyl)-isoxazol-4-ylmethoxy]-pyridazine-3-carboxylic acid isopropylamide] |
| 11.7 | Cc1onc(-c2ccc(F)cc2)c1COc1ccc(C(=O)N2CCS(=O)(=O)CC2)nn1 [Example 66, (1,1-Dioxo-1λ6-thiomorpholin-4-yl)-{6-[3-(4-fluoro-phenyl)-5-methyl-isoxazol-4-ylmethoxy]-pyridazin-3-yl}-methanone] |
| 8.6 | CCOC(=O)Nc1ccc(OCc2c(-c3ccccc3)noc2C)nn1 [Example 34, [6-(5-Methyl-3-phenyl-isoxazol-4-ylmethoxy)-pyridazin-3-yl]-carbamic acid ethyl ester] |
| 4.1 | CNC(=O)c1ccc(OCc2c(-c3cccc(F)c3)noc2C)nn1 [Example 50, 6-[3-(3-Fluoro-phenyl)-5-methyl-isoxazol-4-ylmethoxy]-pyridazine-3-carboxylic acid methylamide] |
| 6.6 | Cc1onc(-c2cccc(F)c2)c1COc1ccc(C(=O)NCCO)nn1 [Example 52, 6-[3-(3-Fluoro-phenyl)-5-methyl-isoxazol-4-ylmethoxy]-pyridazine-3-carboxylic acid (2-hydroxy-ethyl)-amide] |
| 34.7 | O=C(NC1CCOCC1)c1ccc(OCc2conc2-c2ccc(F)cc2)nn1 [Example 122, 6-[3-(4-Fluoro-phenyl)-isoxazol-4-ylmethoxy]-pyridazine-3-carboxylic acid (tetrahydro-pyran-4-yl)-amide] |
| 4.1 | Cc1onc(-c2ccccn2)c1COc1ccc(C(=O)NCC2CC2)nn1 [Example 100, 6-(5-Methyl-3-pyridin-2-yl-isoxazol-4-ylmethoxy)-pyridazine-3-carboxylic acid cyclopropylmethyl-amide] |
| 8.4 | Cc1onc(-c2cccc(F)c2)c1COc1ccc(C(=O)NC(C)C)nn1 [Example 54, 6-[3-(3-Fluoro-phenyl)-5-methyl-isoxazol-4-ylmethoxy]-pyridazine-3-carboxylic acid isopropylamide] |
| 5.4 | Cc1onc(-c2ccccc2)c1COc1ccc(NC(=O)c2ccno2)nn1 [Example 33, Isoxazole-5-carboxylic acid [6-(5-methyl-3-phenyl-isoxazol-4-ylmethoxy)-pyridazin-3-yl]-amide] |
| 9.6 | Cc1onc(-c2ccccc2)c1COc1ccc(Cl)nn1 [Example 1, 3-Chloro-6-(5-methyl-3-phenyl-isoxazol-4-ylmethoxy)-pyridazine] |
| 18.1 | Cc1onc(-c2ccccn2)c1COc1ccc(C(=O)N2CCS(=O)(=O)CC2)nn1 [Example 99, (1,1-Dioxo-1λ6-thiomorpholin-4-yl)-[6-(5-methyl-3-pyridin-2-yl-isoxazol-4-ylmethoxy)-pyridazin-3-yl]-methanone] |
| 2.8 | Cc1onc(-c2ccccn2)c1COc1ccc(C(=O)NCC(F)(F)F)nn1 [Example 98, 6-(5-Methyl-3-pyridin-2-yl-isoxazol-4-ylmethoxy)-pyridazine-3-carboxylic acid (2,2,2-trifluoro-ethyl)-amide] |
| 2.3 | Cc1cc(OCc2c(-c3ccccc3)noc2C)nnc1Cl [Example 41, 3-Chloro-4-methyl-6-(5-methyl-3-phenyl-isoxazol-4-ylmethoxy)-pyridazine] |
| 7.6 | Cc1onc(-c2ccccc2)c1COc1ccc(Br)nn1 [Example 2, 3-Bromo-6-(5-methyl-3-phenyl-isoxazol-4-ylmethoxy)-pyridazine] |
| 6.3 | CNc1ccc(OCc2c(-c3ccccc3)noc2C)nn1 [Example 37, Methyl-[6-(5-methyl-3-phenyl-isoxazol-4-ylmethoxy)-pyridazin-3-yl]-amine HCl] |
